Common to all, as to assay type: in vivo
Assay [1] deals with umami and salt taste of 0.5% NaCl solution. The assay can be described thus: Tasting of NaCl solutions by flavourists (Example 2). To be noted: 0.5% NaCl + 5 ppm compound compared with 0.5% NaCl reference; scale -3 (much lower) to 3 (much higher), 0 = same as reference; average of flavourists' ratings. The protocol:
An aqueous NaCl solution (0.5% by weight) was prepared (reference) to which 5 ppm of a compound of formula (I) was added.
The samples were tasted by a group of flavourists. The intensity of the umami and salt taste of the NaCl solutions comprising a compound of formula (I) (0.5% NaCl; 5 ppm of a compound of formula (I)) was compared with that of the reference (0.5% NaCl) and rated according to the following intensity scale:
Taste effect much lower than reference: −3
Taste effect lower than reference: −2
Taste effect slightly lower than reference: −1
Taste effect same as reference: 0
Taste effect slightly higher than reference: 1
Taste effect higher than reference: 2
Taste effect much higher than reference: 3

Assay [2] concerns taste of NaCl, MSG and Ribo solutions. The assay can be described thus: Taste enhancement of NaCl, MSG and Ribo solutions, tasted by flavourists (Example 3). To be noted: linear scale 0 to 10; for Taste intensity NaCl: solution D (0.5% NaCl + 5 ppm compound) compared with A (0.5% NaCl, = 0.0), 5-10 flavourists; for Taste intensity MSG: solution E (0.5% NaCl + 0.03% MSG + 5 ppm compound) compared with B (0.5% NaCl + 0.03% MSG, = 5.0); for Taste intensity Ribo: solution F (0.5% NaCl + 0.015% Ribo + 5 ppm compound) compared with C (0.5% NaCl + 0.015% Ribo, = 5.0). The protocol: Six solutions were prepared: • A a solution of 0.5% NaCl • B a solution of 0.5% NaCl and 0.03% MSG (monosodium glutamate) • C a solution of 0.5% NaCl and 0.015% Ribo (disodium 5-ribonucleotides=E635) • D a solution of 0.5% NaCl and 5 ppm of a compound of formula (I) • E a solution of 0.5% NaCl and 0.03% MSG and 5 ppm a compound of formula (I) • F a solution of 0.5% NaCl and 0.015% Ribo and 5 ppm of a compound of formula (I)
The samples were tasted by a group of 5-10 flavourists aged between 30 and 60. The taste of solution D was compared with that of A to determine the enhancement effect of a compound of formula (I) on NaCl. Similarly, solution E was compared with solution B and solution F with solution C to determine the enhancement effect of a compound of formula (I) on MSG and Ribo respectively. The effect was marked on a linear scale between 0 and 10, the greater the value the greater the effect. For a reference, the taste solutions of B and C were compared with A as well.

The test system of assay [3] is taste of vegetarian bouillon. Briefly: Vegetarian bouillon tasting by flavourists (Example 4). The settings on record: 10 ppm compound in vegetarian bouillon (32 g mix in 1 L boiling water); 4 flavourists. The protocol:
A vegetarian bouillon mix was prepared from 204.71 g of sodium chloride, 147.76 g of dextrose monohydrate (ex Tapioca), 0.19 g of celery oleoresin, 0.19 g of oleoresin coriander seed, 418.64 g maltodextrin 5-8 DE, 37.65 g vegetable oil soya bean refined, 28.24 g yeast standard light, 3.76 g of onion powder, 3.76 g of garlic powder, 0.47 g of white pepper and 154.35 g of potato starch.
32 g of the well-mixed ingredients was added to 1 L of boiling water and stirred until completely dissolved.

For assay [4], the system named is umami- and salt-taste in comestible products. The assay can be described thus: Taste imparted in comestible products (general statement).

11 molecules from US10226062B2, “Organic compounds” (priority 2013, dated 2019) can be followed below.

Turning to `C[C@H](NCc1ccc2c(c1)OCO2)C(=O)O` [N-piperonyl alanine], in assay [1], the “Taste intensity Salt (NaCl)” value worked out at 0.50 and the “Taste intensity Umami” value is listed as 0.00.
As to `CCC(CC)NCc1ccc2c(c1)OCO2` [N-piperonyl 3-pentylamine], in assay [2], the “Taste intensity NaCl” value worked out at 1.0, the “Taste intensity MSG” value was determined as 6.3 and the “Taste intensity Ribo” value worked out at 5.3. For the same molecule, the “Taste of test bouillon compared with reference bouillon” value in assay [3] is “more umami, sweeter and more lingering”. In assay [1], the “Taste intensity Salt (NaCl)” value turned out to be 0.50 and the “Taste intensity Umami” value was determined as 0.00.
In the case of `COc1cc(CNCCO)ccc1O.Cl` [N-(2-hydroxyethyl) vanillylamine hydrochloride], in assay [1], the “Taste intensity Salt (NaCl)” value is reported as 0.33 and the “Taste intensity Umami” value is listed as 0.67.
`CCNCc1ccc(O)c(OC)c1.Cl` [N-vanillyl ethylamine hydrochloride]: in assay [1], the “Taste intensity Salt (NaCl)” value stood at 0.67 and the “Taste intensity Umami” value was found to be 0.67.
For `CCNCc1ccc2c(c1)OCO2` [N-piperonyl ethylamine], in assay [2], the “Taste intensity NaCl” value came to 1.3, the “Taste intensity MSG” value turned out to be 6.6 and the “Taste intensity Ribo” value turned out to be 5.6. Further, the “Taste imparted in comestible products” value in assay [4] was “imparted an umami- and salt-taste”. In addition, the “Taste of test bouillon compared with reference bouillon” value in assay [3] was “more umami, more salty, slightly sweeter and had a slightly more powdery volatile effect”. In assay [1], the “Taste intensity Salt (NaCl)” value stood at 0.75 and the “Taste intensity Umami” value is given as 0.25.
For the molecule `CNCc1ccc2c(c1)OCO2` [N-piperonyl methylamine], in assay [1], the “Taste intensity Salt (NaCl)” value amounted to 0.25 and the “Taste intensity Umami” value was 0.00.
For `OCCNCc1ccc2c(c1)OCO2` [N-piperonyl 2-hydroxyethylamine], in that order: 0.75 and 0.00.
In the case of `CC(C)NCc1ccc2c(c1)OCO2` [N-piperonyl isopropylamine], in assay [1], the “Taste intensity Salt (NaCl)” value amounted to 0.50 and the “Taste intensity Umami” value is listed as 0.00.
`OCC(CO)NCc1ccc2c(c1)OCO2` [N-piperonyl 1,3-dihydroxy-2-propylamine]: in assay [2], the “Taste intensity NaCl” value stood at 2.3, the “Taste intensity MSG” value was found to be 5.0 and the “Taste intensity Ribo” value worked out at 5.0. In addition, in assay [1], the “Taste intensity Salt (NaCl)” value is 1.00 and the “Taste intensity Umami” value came to 0.50.
For the molecule `CCC(CO)NCc1ccc2c(c1)OCO2` (stereo not shown) [N-piperonyl 1-hydroxy-2-butylamine], in assay [2], the “Taste intensity NaCl” value turned out to be 1.0, the “Taste intensity MSG” value worked out at 5.3 and the “Taste intensity Ribo” value is 5.0. Moreover, in assay [1], the “Taste intensity Salt (NaCl)” value came out at 0.67 and the “Taste intensity Umami” value came out at 0.33.
Turning to `CCCNCc1ccc2c(c1)OCO2` [N-piperonyl n-propylamine], in assay [1], the “Taste intensity Salt (NaCl)” value was found to be 1.00 and the “Taste intensity Umami” value is listed as 0.00.
